How the values were obtained:
Format in all cases: in vivo
[1] = test system: barnyardgrass (Echinochloa crus-galli); test: Test A preemergence, barnyardgrass; settings: 0 to 100 scale (0 no effect, 100 complete control)
Outline: (§1)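 Seeds sown in loam soil–sand blend; test chemicals in non-phytotoxic solvent mixture with surfactant applied preemergence as directed soil spray, or postemergence to plants 2–10 cm tall at one- to two-leaf stage. Greenhouse, ~10 days; visual injury rated against untreated controls, 0 (no effect) to 100 (complete control).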

[2] = test system: pigweed (Amaranthus retroflexus); test: Test A preemergence, pigweed; settings: 0 to 100 scale (0 no effect, 100 complete control)
Outline: as §1

[3] = test system: morningglory (Ipomoea spp.); test: Test A preemergence, morningglory; settings: 0 to 100 scale (0 no effect, 100 complete control)
Outline: as §1

[4] = test system: giant foxtail (Setaria faberi); test: Test A preemergence, giant foxtail; settings: 0 to 100 scale (0 no effect, 100 complete control)
Outline: as §1

corn (Zea mays) [5] = test: Test A postemergence, corn; settings: 0 to 100 scale (0 no effect, 100 complete control)
Outline: as §1

[6] = test system: wheat (Triticum aestivum); test: Test A preemergence, wheat; settings: 0 to 100 scale (0 no effect, 100 complete control)
Outline: as §1

[7] = test system: wheat (Triticum aestivum); test: Test A postemergence, wheat; settings: 0 to 100 scale (0 no effect, 100 complete control)
Outline: as §1

[8] = test system: barnyardgrass (Echinochloa crus-galli); test: Test B flooded paddy test, barnyardgrass; settings: Flood
Outline: (§2)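 Rice, umbrella sedge, ducksalad and barnyardgrass at 2-leaf stage; pots flooded to 3 cm, compounds applied into paddy water, depth held throughout. Greenhouse 13 to 15 days, then visual rating vs untreated controls on 0–100 scale (0 no effect, 100 complete control); dash means no test result.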

[9] = test system: ducksalad (Heteranthera limosa); test: Test B flooded paddy test, ducksalad; settings: Flood, scale 0 to 100
Outline: as §2

[10] = test system: giant foxtail (Setaria faberi); test: Test A postemergence, giant foxtail; settings: 0 to 100 scale (0 no effect, 100 complete control)
Outline: as §1

[11] = test system: umbrella sedge (Cyperus difformis); test: Test B flooded paddy test, umbrella sedge; settings: Flood, scale 0 to 100
Outline: as §2

[12] = test system: morningglory (Ipomoea spp.); test: Test A postemergence, morningglory; settings: 0 to 100 scale (0 no effect, 100 complete control)
Outline: as §1

[13] = test system: large crabgrass (Digitaria sanguinalis); test: Test A preemergence, large crabgrass; settings: 0 to 100 scale (0 no effect, 100 complete control)
Outline: as §1

[14] = test system: barnyardgrass (Echinochloa crus-galli); test: Test A postemergence, barnyardgrass; settings: 0 to 100 scale (0 no effect, 100 complete control)
Outline: as §1

[15] = test system: velvetleaf (Abutilon theophrasti); test: Test A postemergence, velvetleaf; settings: 0 to 100 scale (0 no effect, 100 complete control)
Outline: as §1

[16] = test system: large crabgrass (Digitaria sanguinalis); test: Test A postemergence, large crabgrass; settings: 0 to 100 scale (0 no effect, 100 complete control)
Outline: as §1

rice (Oryza sativa) = test: Test B flooded paddy test, rice; settings: Flood, scale 0 to 100
Outline: as §2

[17] = test system: pigweed (Amaranthus retroflexus); test: Test A postemergence, pigweed; settings: 0 to 100 scale (0 no effect, 100 complete control)
Outline: as §1

[18] = test system: velvetleaf (Abutilon theophrasti); test: Test A preemergence, velvetleaf; settings: 0 to 100 scale (0 no effect, 100 complete control)
Outline: as §1

corn (Zea mays) [19] = test: Test A preemergence, corn; settings: 0 to 100 scale (0 no effect, 100 complete control)
Outline: as §1

CCn1c(=O)c(C[S+]([O-])C2=NOC(C)(C)C2)nc2ccccc21 (stereo not shown) [Compound 29]
10: Plant response rating, Barnyardgrass ([14]; 125 g ai/ha)
0: Plant response rating, Barnyardgrass ([1]; 125 g ai/ha) | Plant response rating, Barnyardgrass ([1]; 500 g ai/ha) | Plant response rating, Pigweed ([2]; 125 g ai/ha) | Plant response rating, Pigweed ([2]; 500 g ai/ha) | Plant response rating, Morningglory ([3]; 125 g ai/ha) | Plant response rating, Morningglory ([3]; 500 g ai/ha) | Plant response rating, Foxtail, Giant ([4]; 125 g ai/ha) | Plant response rating, Foxtail, Giant ([4]; 500 g ai/ha) | Plant response rating, Corn (corn (Zea mays) [5]; 125 g ai/ha) | Plant response rating, Corn (corn (Zea mays) [5]; 500 g ai/ha) | Plant response rating, Wheat ([6]; 125 g ai/ha) | Plant response rating, Wheat ([6]; 500 g ai/ha) | Plant response rating, Wheat ([7]; 125 g ai/ha) | Plant response rating, Wheat ([7]; 500 g ai/ha) | Plant response rating, Barnyardgrass ([8]; 31 g ai/ha, scale 0 to 100) | Plant response rating, Barnyardgrass ([8]; 62 g ai/ha, scale 0 to 100) | Plant response rating, Barnyardgrass ([8]; 125 g ai/ha, scale 0 to 100) | Plant response rating, Barnyardgrass ([8]; 250 g ai/ha, scale 0 to 100 (0 no effect, 100 complete control)) | Plant response rating, Ducksalad ([9]; 31 g ai/ha) | Plant response rating, Ducksalad ([9]; 62 g ai/ha) | Plant response rating, Ducksalad ([9]; 125 g ai/ha) | Plant response rating, Foxtail, Giant ([10]; 125 g ai/ha) | Plant response rating, Foxtail, Giant ([10]; 500 g ai/ha) | Plant response rating, Sedge, Umbrella ([11]; 31 g ai/ha) | Plant response rating, Sedge, Umbrella ([11]; 62 g ai/ha) | Plant response rating, Sedge, Umbrella ([11]; 125 g ai/ha) | Plant response rating, Sedge, Umbrella ([11]; 250 g ai/ha) | Plant response rating, Morningglory ([12]; 125 g ai/ha) | Plant response rating, Morningglory ([12]; 500 g ai/ha) | Plant response rating, Crabgrass, Large ([13]; 125 g ai/ha) | Plant response rating, Crabgrass, Large ([13]; 500 g ai/ha) | Plant response rating, Velvetleaf ([15]; 125 g ai/ha) | Plant response rating, Velvetleaf ([15]; 500 g ai/ha) | Plant response rating, Crabgrass, Large ([16]; 125 g ai/ha) | Plant response rating, Crabgrass, Large ([16]; 500 g ai/ha) | Plant response rating, Rice (rice (Oryza sativa); 31 g ai/ha) | Plant response rating, Rice (rice (Oryza sativa); 62 g ai/ha) | Plant response rating, Rice (rice (Oryza sativa); 125 g ai/ha) | Plant response rating, Rice (rice (Oryza sativa); 250 g ai/ha) | Plant response rating, Pigweed ([17]; 125 g ai/ha) | Plant response rating, Pigweed ([17]; 500 g ai/ha) | Plant response rating, Velvetleaf ([18]; 125 g ai/ha) | Plant response rating, Velvetleaf ([18]; 500 g ai/ha) | Plant response rating, Corn (corn (Zea mays) [19]; 125 g ai/ha)
20: Plant response rating, Ducksalad ([9]; 250 g ai/ha) | Plant response rating, Barnyardgrass ([14]; 500 g ai/ha)

CC1(C)CC(S(=O)(=O)Cc2c(C(F)(F)Cl)nc3n(c2=O)CCCC3)=NO1 [Compound 30]
10: Plant response rating, Morningglory ([12]; 125 g ai/ha)
0: Plant response rating, Corn (corn (Zea mays) [5]; 125 g ai/ha) | Plant response rating, Corn (corn (Zea mays) [5]; 500 g ai/ha) | Plant response rating, Wheat ([6]; 125 g ai/ha) | Plant response rating, Wheat ([7]; 125 g ai/ha) | Plant response rating, Barnyardgrass ([8]; 31 g ai/ha, scale 0 to 100) | Plant response rating, Barnyardgrass ([8]; 125 g ai/ha, scale 0 to 100) | Plant response rating, Ducksalad ([9]; 31 g ai/ha) | Plant response rating, Ducksalad ([9]; 125 g ai/ha) | Plant response rating, Sedge, Umbrella ([11]; 31 g ai/ha) | Plant response rating, Sedge, Umbrella ([11]; 125 g ai/ha) | Plant response rating, Rice (rice (Oryza sativa); 31 g ai/ha) | Plant response rating, Rice (rice (Oryza sativa); 125 g ai/ha) | Plant response rating, Corn (corn (Zea mays) [19]; 125 g ai/ha) | Plant response rating, Corn (corn (Zea mays) [19]; 500 g ai/ha)
20: Plant response rating, Velvetleaf ([15]; 125 g ai/ha)
80: Plant response rating, Foxtail, Giant ([10]; 500 g ai/ha) | Plant response rating, Barnyardgrass ([14]; 500 g ai/ha) | Plant response rating, Crabgrass, Large ([16]; 500 g ai/ha)
40: Plant response rating, Morningglory ([3]; 500 g ai/ha) | Plant response rating, Velvetleaf ([18]; 125 g ai/ha)
50: Plant response rating, Barnyardgrass ([1]; 125 g ai/ha) | Plant response rating, Wheat ([6]; 500 g ai/ha) | Plant response rating, Wheat ([7]; 500 g ai/ha) | Plant response rating, Morningglory ([12]; 500 g ai/ha) | Plant response rating, Velvetleaf ([15]; 500 g ai/ha) | Plant response rating, Pigweed ([17]; 125 g ai/ha)
60: Plant response rating, Foxtail, Giant ([10]; 125 g ai/ha) | Plant response rating, Barnyardgrass ([14]; 125 g ai/ha) | Plant response rating, Crabgrass, Large ([16]; 125 g ai/ha) | Plant response rating, Pigweed ([17]; 500 g ai/ha) | Plant response rating, Velvetleaf ([18]; 500 g ai/ha)
70: Plant response rating, Pigweed ([2]; 125 g ai/ha)
30: Plant response rating, Morningglory ([3]; 125 g ai/ha)
100: Plant response rating, Barnyardgrass ([1]; 500 g ai/ha) | Plant response rating, Pigweed ([2]; 500 g ai/ha) | Plant response rating, Foxtail, Giant ([4]; 500 g ai/ha) | Plant response rating, Crabgrass, Large ([13]; 500 g ai/ha)
90: Plant response rating, Foxtail, Giant ([4]; 125 g ai/ha) | Plant response rating, Crabgrass, Large ([13]; 125 g ai/ha)

CC1(C)CC([S+]([O-])Cc2c(C(F)(F)Cl)nc3n(c2=O)CCCC3)=NO1 (stereo not shown) [Compound 32]
30: Plant response rating, Foxtail, Giant ([4]; 125 g ai/ha) | Plant response rating, Pigweed ([17]; 500 g ai/ha)
50: Plant response rating, Foxtail, Giant ([10]; 500 g ai/ha) | Plant response rating, Morningglory ([12]; 500 g ai/ha) | Plant response rating, Crabgrass, Large ([13]; 125 g ai/ha)
80: Plant response rating, Foxtail, Giant ([4]; 500 g ai/ha) | Plant response rating, Crabgrass, Large ([13]; 500 g ai/ha)
0: Plant response rating, Pigweed ([2]; 125 g ai/ha) | Plant response rating, Pigweed ([2]; 500 g ai/ha) | Plant response rating, Morningglory ([3]; 125 g ai/ha) | Plant response rating, Morningglory ([3]; 500 g ai/ha) | Plant response rating, Corn (corn (Zea mays) [5]; 125 g ai/ha) | Plant response rating, Corn (corn (Zea mays) [5]; 500 g ai/ha) | Plant response rating, Wheat ([6]; 125 g ai/ha) | Plant response rating, Wheat ([6]; 500 g ai/ha) | Plant response rating, Wheat ([7]; 125 g ai/ha) | Plant response rating, Wheat ([7]; 500 g ai/ha) | Plant response rating, Barnyardgrass ([8]; 31 g ai/ha, scale 0 to 100) | Plant response rating, Barnyardgrass ([8]; 125 g ai/ha, scale 0 to 100) | Plant response rating, Ducksalad ([9]; 31 g ai/ha) | Plant response rating, Ducksalad ([9]; 125 g ai/ha) | Plant response rating, Foxtail, Giant ([10]; 125 g ai/ha) | Plant response rating, Sedge, Umbrella ([11]; 31 g ai/ha) | Plant response rating, Sedge, Umbrella ([11]; 125 g ai/ha) | Plant response rating, Velvetleaf ([15]; 125 g ai/ha) | Plant response rating, Rice (rice (Oryza sativa); 31 g ai/ha) | Plant response rating, Rice (rice (Oryza sativa); 125 g ai/ha) | Plant response rating, Pigweed ([17]; 125 g ai/ha) | Plant response rating, Velvetleaf ([18]; 125 g ai/ha) | Plant response rating, Velvetleaf ([18]; 500 g ai/ha) | Plant response rating, Corn (corn (Zea mays) [19]; 125 g ai/ha) | Plant response rating, Corn (corn (Zea mays) [19]; 500 g ai/ha)
40: Plant response rating, Morningglory ([12]; 125 g ai/ha) | Plant response rating, Barnyardgrass ([14]; 500 g ai/ha) | Plant response rating, Crabgrass, Large ([16]; 500 g ai/ha)
70: Plant response rating, Barnyardgrass ([1]; 500 g ai/ha)
10: Plant response rating, Barnyardgrass ([14]; 125 g ai/ha) | Plant response rating, Velvetleaf ([15]; 500 g ai/ha) | Plant response rating, Crabgrass, Large ([16]; 125 g ai/ha)
20: Plant response rating, Barnyardgrass ([1]; 125 g ai/ha)
